35 compounds from ChEMBL document CHEMBL1201862, “PubChem BioAssay data set” (2004) can be followed below.

The source made the active and inactive calls.

One may read the EC50 as the concentration needed to bring the measured effect to its halfway point. Broadly, the AC50 is the midpoint of the concentration-response curve, whichever way the signal moves.

Test [1] has as its target T1, Heat shock factor protein 1 (Mus musculus, UniProt P38532).
T1 sequence (P38532 whole entry): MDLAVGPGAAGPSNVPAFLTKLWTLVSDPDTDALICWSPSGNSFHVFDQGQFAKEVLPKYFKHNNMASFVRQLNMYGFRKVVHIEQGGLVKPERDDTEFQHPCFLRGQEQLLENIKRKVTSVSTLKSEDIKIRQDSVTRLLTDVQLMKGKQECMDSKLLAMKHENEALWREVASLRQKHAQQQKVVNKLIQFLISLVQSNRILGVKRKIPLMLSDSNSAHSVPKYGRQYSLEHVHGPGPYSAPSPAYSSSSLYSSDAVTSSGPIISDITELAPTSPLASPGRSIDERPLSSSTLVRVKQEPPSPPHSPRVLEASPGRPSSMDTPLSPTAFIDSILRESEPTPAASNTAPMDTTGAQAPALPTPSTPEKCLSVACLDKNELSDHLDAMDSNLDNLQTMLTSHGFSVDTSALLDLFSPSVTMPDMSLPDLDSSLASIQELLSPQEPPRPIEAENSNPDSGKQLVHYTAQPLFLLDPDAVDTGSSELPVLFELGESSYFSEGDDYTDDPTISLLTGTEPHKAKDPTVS
In words: HSF1 potentiators in luciferase reporter cells, confirmation, cell-based, NIH3T3, luminescence, dose retest (AID 435004).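 Note: stress induced by proteasome inhibitor MG132 added 30 min after compound; luciferase reporter driven by HSF1 response element in NIH3T3 cells; actives raise luminescence as potentiators of the MG132 stress response.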 Type of test: functional. On the technique in general: A reporter such as luciferase makes a cellular process visible.

Test [2] deals with Cytochrome P450 2C9 (Homo sapiens, UniProt P11712).
For test [3], the system named is Streptococcus sp. 'group A'. In words: growth inhibition of control SK(-) GAS strain, dose response, counter-screen for streptokinase expression inhibitor project, luminescence, kanamycin, BacTiterGlo, confirmation (AID 1900). Type of test: functional, organism-based.
Test [4] concerns the target T2, Streptokinase A (Streptococcus pyogenes serotype M1, UniProt P10520).
T2 sequence (P10520 whole entry): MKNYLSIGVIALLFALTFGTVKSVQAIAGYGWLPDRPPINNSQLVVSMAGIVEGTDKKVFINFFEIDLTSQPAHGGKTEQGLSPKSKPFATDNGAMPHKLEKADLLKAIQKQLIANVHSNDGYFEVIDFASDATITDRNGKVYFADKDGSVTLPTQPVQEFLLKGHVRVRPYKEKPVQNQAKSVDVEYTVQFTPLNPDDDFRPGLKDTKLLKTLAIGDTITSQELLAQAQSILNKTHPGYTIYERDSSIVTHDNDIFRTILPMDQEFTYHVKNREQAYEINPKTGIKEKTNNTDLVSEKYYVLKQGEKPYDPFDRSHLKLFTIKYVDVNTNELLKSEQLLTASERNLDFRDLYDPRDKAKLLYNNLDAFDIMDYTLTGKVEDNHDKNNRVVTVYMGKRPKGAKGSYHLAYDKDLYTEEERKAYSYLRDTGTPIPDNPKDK
In words: S. pyogenes streptokinase expression inhibitors, potency, dose response, plasminogen activation absorbance, OD405 (AID 1914).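 Note: secreted streptokinase activity via plasminogen activation per viability signal from cell pellet.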 Type of test: functional, Streptococcus pyogenes M1 GAS.

The subject of test [5] is Streptococcus. In words: Group A Streptococcus viability loss, dose response, counter-screen for streptokinase expression inhibitor project, luminescence, BacTiterGlo (AID 1915).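 Note: potency for reduction of bacterial viability or growth.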 The class given is functional, organism-based. (Counterscreens check selectivity or assay interference.)
Test [6] is described as follows: Shn3 3'UTR reporter inhibitors, dose response, cell-based, Clone20 osteoblasts, firefly luciferase, cherry-picked (AID 624132).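 Note: firefly luciferase luminescence from reporter carrying the Shn3 3'UTR in osteoblasts.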 Type of test: functional.
Test [7] in a line: HepG2 cell cytotoxicity, dose response, cytotoxicity control for Shn3 inhibitor project, CellTiter-Glo, cherry-picked (AID 624134). The class given is functional, cell-based. (In general: In ATP-based viability assays light output follows the ATP content of the culture.)
Test [8] in a line: control 3'UTR Renilla luciferase suppression, dose response, counter-screen for Shn3 inhibitor project, cell-based, Clone20-Shn3RL, cherry-picked (AID 624133). The class given is functional.
Test [9] has as its target Cytochrome P450 2C19 (Homo sapiens, UniProt P33261). In words: Cytochrome panel assay with activity outcomes. Panel member name: p450-cyp2c19 Compounds with AC50 equal or less than 10 uM are considered active. Type of test: functional. The conditions noted are these: read-out: AC50.
Test [10] addresses T3, Protein RecA (Mycobacterium tuberculosis, UniProt P9WHJ3).
T3 sequence (P9WHJ3 whole entry): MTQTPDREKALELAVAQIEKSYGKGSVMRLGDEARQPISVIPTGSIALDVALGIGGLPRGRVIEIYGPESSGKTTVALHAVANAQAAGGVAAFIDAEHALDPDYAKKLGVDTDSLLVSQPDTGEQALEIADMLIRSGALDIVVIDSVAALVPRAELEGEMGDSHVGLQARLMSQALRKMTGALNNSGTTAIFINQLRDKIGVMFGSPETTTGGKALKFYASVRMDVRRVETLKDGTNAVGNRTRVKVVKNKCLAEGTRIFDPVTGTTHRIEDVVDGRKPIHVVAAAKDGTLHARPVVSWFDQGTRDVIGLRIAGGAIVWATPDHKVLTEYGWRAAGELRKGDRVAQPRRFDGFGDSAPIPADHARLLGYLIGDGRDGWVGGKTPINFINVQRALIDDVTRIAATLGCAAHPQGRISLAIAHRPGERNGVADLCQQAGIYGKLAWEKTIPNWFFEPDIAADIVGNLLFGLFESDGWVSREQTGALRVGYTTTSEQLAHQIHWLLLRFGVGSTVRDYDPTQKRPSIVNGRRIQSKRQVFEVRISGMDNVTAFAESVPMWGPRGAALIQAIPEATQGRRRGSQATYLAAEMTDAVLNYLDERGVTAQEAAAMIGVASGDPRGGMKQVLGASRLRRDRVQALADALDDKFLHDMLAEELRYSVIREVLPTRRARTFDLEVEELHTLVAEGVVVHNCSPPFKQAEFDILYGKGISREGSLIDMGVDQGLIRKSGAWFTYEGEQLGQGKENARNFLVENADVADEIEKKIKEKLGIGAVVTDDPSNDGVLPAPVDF
In words: Fluorescence Cell-Free Homogeneous Dose Retest to Identify Inhibitors of RecA-Intein Splicing Activity. [Related pubchem assays (depositor defined):AID2097, AID2223, AID489010, AID492950]. The class given is functional.

Chain of Cytochrome P450 2C9 (P11712 whole entry): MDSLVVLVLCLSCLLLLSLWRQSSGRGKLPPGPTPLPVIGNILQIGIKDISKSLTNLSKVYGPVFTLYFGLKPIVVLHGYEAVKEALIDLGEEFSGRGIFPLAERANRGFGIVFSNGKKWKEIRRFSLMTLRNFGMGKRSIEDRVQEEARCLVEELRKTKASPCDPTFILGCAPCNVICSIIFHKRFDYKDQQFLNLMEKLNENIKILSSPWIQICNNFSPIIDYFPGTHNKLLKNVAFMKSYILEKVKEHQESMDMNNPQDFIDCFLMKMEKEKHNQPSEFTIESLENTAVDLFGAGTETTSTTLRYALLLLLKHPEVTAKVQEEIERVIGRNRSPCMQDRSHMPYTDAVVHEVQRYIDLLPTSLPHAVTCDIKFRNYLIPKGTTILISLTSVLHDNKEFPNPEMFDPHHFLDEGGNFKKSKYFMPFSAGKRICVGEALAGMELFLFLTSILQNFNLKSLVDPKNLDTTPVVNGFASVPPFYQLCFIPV
Chain of Cytochrome P450 2C19 (P33261 whole entry): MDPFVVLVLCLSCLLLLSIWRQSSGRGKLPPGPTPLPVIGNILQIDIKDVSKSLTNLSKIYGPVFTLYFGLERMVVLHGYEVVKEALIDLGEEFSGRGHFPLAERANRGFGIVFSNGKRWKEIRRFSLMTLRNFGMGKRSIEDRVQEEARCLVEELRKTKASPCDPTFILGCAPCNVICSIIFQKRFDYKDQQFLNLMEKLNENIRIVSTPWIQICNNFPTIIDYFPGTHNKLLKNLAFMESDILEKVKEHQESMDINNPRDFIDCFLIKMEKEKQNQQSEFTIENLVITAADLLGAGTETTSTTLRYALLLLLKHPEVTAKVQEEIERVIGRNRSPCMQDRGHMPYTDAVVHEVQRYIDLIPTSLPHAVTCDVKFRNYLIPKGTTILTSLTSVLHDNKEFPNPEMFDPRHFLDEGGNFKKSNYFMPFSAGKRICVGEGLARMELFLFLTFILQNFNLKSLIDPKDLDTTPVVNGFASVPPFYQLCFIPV

Consider `Cn1c(CCC(=O)OCC(=O)Nc2ccc(Oc3ccccc3)cc2)nc(=O)c2ccccc21`, for which the EC50 in test [1] is > 260 µM (inactive).

On to `CCn1c(SCC(=O)c2ccccc2)nnc1-c1cccs1`, for which the AC50 in test [2] is 28.2 µM (inconclusive).

As for `COc1cccc(CNCC(O)(c2ccc(Cl)cc2)c2ccc(Cl)cc2)c1`, the EC50 in [3] was 3.15 µM (active); in test [4] it was 18.9 µM (active); in test [5], 18.2 µM (active).

Turning to `CCN(CC)S(=O)(=O)c1ccc2c(c1)nc(SCC(=O)NC1CC1)n2-c1ccccc1OC`, the EC50 in test [1] is > 260 µM (inactive).

Turning to `Cc1cccc(N2C(=N)SCC2=O)c1C`, the EC50 in [1] is > 260 µM (inactive).

Consider `COCCN1C(=O)c2ccccc2C(C(=O)Nc2ccc3c(c2)OCCO3)C1c1ccc(F)cc1` (centres undefined), for which the AC50 in test [2] was 35.5 µM (inconclusive).

Take `CCc1nnc(N/N=C/c2ccccc2Cl)n1N`: the EC50 in [1] was > 260 µM (inactive).

With `CC(C)c1ccc(/C(C(=O)O)=C(\O)C(=O)O)cc1`, the AC50 in [2] was 3.16 µM (inconclusive).

For the compound `O=C(/C=C/c1ccc(Cl)cc1)NCCSc1ccccc1`, in [2], the AC50 was 5.01 µM (inconclusive).

On to `COc1ccc(S(=O)(=O)NCC(c2ccc(F)cc2)N2CCN(C)CC2)cc1` (centres undefined), for which the EC50 in test [3], in [4] and in [5] was > 150 µM (not active) in each case.

`COCC(=O)N1CCC2(CCCN(c3ccc(-c4ccccc4)cc3)C2)CC1`: the AC50 in test [2] is 20 µM (inconclusive).

Consider `COc1cc(OC)c(OC)cc1CNC(=O)c1cccc(S(=O)(=O)N2CCc3ccccc3C2)c1`, for which the figures for the AC50 in test [6], in test [7] and in [8] were 2.39 µM (active), 3.08 µM (active) and 24 µM (active), respectively.

In the case of `O=c1cc2c(nn1Cc1ccc(Cl)cc1Cl)-c1ccccc1CC2`, the values for the EC50 in test [3], in test [4] and in test [5] were 7.36 µM (active), 11 µM (active) and 17.6 µM (active), respectively.

For `COc1ccc(N=C(S)Nc2ccccc2SC)c(OC)c1`, the EC50 in test [1] is > 260 µM (inactive).

Turning to `Cc1cc(C)n(-c2cc(=O)n(C)c(=O)n2C)n1`, the EC50 in test [1] is > 260 µM (inactive).

Turning to `O=S(=O)(NC(=Nc1cccc2ccccc12)c1ccccc1)c1ccc(F)cc1`, the EC50 in [1] was > 260 µM (inactive).

Take `CC(=O)c1cccc(NS(=O)(=O)c2ccc(N/C=C\C(=O)c3ccc(C)cc3)cc2)c1`: the AC50 in [6] was 1.51 µM (active); in [7], > 70 µM (inactive); in [8] it was 19.6 µM (active).

For the compound `CCCCCCCCCCCCN1C(=O)CSC1c1cccnc1` (centres undefined), the values for the concentration for a half-maximal effect (EC50) in test [3], in test [4] and in [5] were 6.74 µM (active), 20.4 µM (active) and > 150 µM (not active), respectively.

For the compound `CCCCNc1c(-c2ccc(OC)c(SC3CCCCC3)c2)nc2cnccn12`, the figures for the EC50 in test [3], in [4] and in test [5] were 4.63 µM (active), 6.56 µM (active) and 8.16 µM (active), respectively.

On to `Cc1ccc(-c2csc3ncnc(O)c23)c(C)c1`, for which, in test [1], the EC50 is > 260 µM (inactive).

For the compound `O=C(NNC(=O)c1ccccc1-n1cccc1)c1ccccc1`, the AC50 in [9] is 11.2 µM (inconclusive); in [2], 35.5 µM (inconclusive).

`Oc1cc(O)nc(SCc2ccc(Cl)cc2)n1`: the EC50 in test [3] is 81.5 µM (active); in test [4] it was > 150 µM (not active); in [5], > 150 µM (not active).

`COc1ccc(C)cc1Cn1c(S(C)(=O)=O)nc2ccccc21`: in test [1], the EC50 is > 260 µM (inactive).

For the compound `CCOC(=O)c1cc(-c2ccc3c(c2)OCCO3)nc2c1c(C)nn2CCC#N`, the EC50 is 4.49 µM (active) in test [3], > 150 µM (not active) in [4] and 17.6 µM (active) in test [5].

For `O=C(COC(=O)C1CSC2(c3ccc(F)cc3)CCC(=O)N12)NC(=O)NC1CCCC1` (centres undefined), the EC50 in [1] was > 260 µM (inactive).

Turning to `CCN1CCN(Cc2ccc(NC(=O)c3ccc(C)c(NC(=O)c4cncc(-c5cccs5)c4)c3)cc2C(F)(F)F)CC1`, the figures for the AC50 in test [6], in test [7] and in test [8] were 0.808 µM (active), 7.28 µM (active) and 0.898 µM (active), respectively.

In the case of `O=C(NCc1ccco1)C1CC(O)CN1C(=O)Nc1ccccc1` (centres undefined), in [1], the EC50 was > 260 µM (inactive).

Regarding `N#Cc1ccccc1COC(=O)c1cc(=O)c2ccccc2o1`, the EC50 in [1] was > 260 µM (inactive).

With `Cn1c(=O)c2c(nc(NCCO)n2C)n(C)c1=O`, the EC50 in test [1] is > 260 µM (inactive).

As for `Cc1cc(NC(=S)N(Cc2ccc(Cl)cc2)Cc2ccc(C(=O)O)cc2)ccc1Cl`, the figures for the EC50 in [3], in test [4] and in [5] were 10.1 µM (active), > 150 µM (not active) and > 150 µM (not active), respectively.

For the compound `O=[N+]([O-])c1cccc(-c2nc(-c3ccncc3)no2)c1`, the AC50 in test [2] is 8.91 µM (inconclusive).

For `O=C1C(CC[S+]([O-])c2ccccc2)C(=O)N(c2ccccc2)N1c1ccccc1` (centres undefined) [SULFINPYRAZONE], the AC50 in test [2] was 10 µM (inconclusive).

For the compound `COc1cc(-c2ccc(NC(=O)NC3CC3)c(OC)c2)ccc1NC(=O)NC1CC1`, the EC50 in test [3] was 117 µM (active); in [4], > 150 µM (not active); in test [5], 135 µM (active).

Take `COC(=O)C/C=C\[C@@H](C)[C@@H](/C=N\O[C@@H](C)c1cc(-c2c(C)cc(C)cc2C)no1)OC`: the AC50 in [9] is 2.51 µM (inconclusive); in test [2] it was 3.16 µM (inconclusive).

Regarding `Cc1ccccc1OCC(=O)Nc1ccccc1N1CCCCC1`, the EC50 in test [3] was 9.64 µM (active); in test [4], 14.2 µM (active); in test [5] it was 17.9 µM (active); in test [10], 242 µM (active).
